Series [1] deals with T1, Histamine H3 receptor (Homo sapiens, UniProt Q9Y5N1). The settings on record: CHO, 10 uM.
Series [2] has as its target T1, Histamine H3 receptor. The experiment in a line: Displacement of [3H]-N-alpha-methylhistamine from human cloned histamine H3 receptor expressed in CHO cells. Type of series: cell-based.
Series [3] concerns the target Histamine H3 receptor (Rattus norvegicus, UniProt Q9QYN8). Briefly: Displacement of [3H]N-alpha-methylhistamine from rat cloned histamine H3 receptor expressed in CHO cells. The series is classed as cell-based. Background: In a radioligand displacement assay an active substance lowers the binding of a labelled ligand.
In series [4] the target is Histamine H3 receptor (Rattus norvegicus) (UniProt Q9QYN8). The conditions noted are these: CHO, 10 uM.
Histamine H3 receptor (Rattus norvegicus), sequence (Q9QYN8 whole entry): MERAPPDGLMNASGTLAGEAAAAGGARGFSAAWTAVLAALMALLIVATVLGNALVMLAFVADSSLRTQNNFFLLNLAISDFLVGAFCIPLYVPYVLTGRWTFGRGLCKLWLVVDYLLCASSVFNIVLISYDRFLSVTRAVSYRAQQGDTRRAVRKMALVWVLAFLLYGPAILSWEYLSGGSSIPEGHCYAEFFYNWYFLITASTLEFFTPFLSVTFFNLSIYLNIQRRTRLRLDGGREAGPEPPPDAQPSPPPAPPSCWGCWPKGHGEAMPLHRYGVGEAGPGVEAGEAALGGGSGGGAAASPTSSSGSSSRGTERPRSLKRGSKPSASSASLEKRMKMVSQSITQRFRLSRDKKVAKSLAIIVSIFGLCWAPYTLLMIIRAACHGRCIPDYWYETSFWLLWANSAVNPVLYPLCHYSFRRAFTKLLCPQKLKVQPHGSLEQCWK
Series [5] can be described thus: AUC (infinity) in rat at 5 mg/kg, po. Type of series: ADME, organism-based. Details: time infinity, dose 5 mg/kg, route oral. The settings on record: plasma.
The target of another series is Cytochrome P450 2C19 (Homo sapiens, UniProt P33261). Briefly: Inhibition of CYP2C19. Type of series: ADME.
Cytochrome P450 2C19, sequence (P33261 whole entry): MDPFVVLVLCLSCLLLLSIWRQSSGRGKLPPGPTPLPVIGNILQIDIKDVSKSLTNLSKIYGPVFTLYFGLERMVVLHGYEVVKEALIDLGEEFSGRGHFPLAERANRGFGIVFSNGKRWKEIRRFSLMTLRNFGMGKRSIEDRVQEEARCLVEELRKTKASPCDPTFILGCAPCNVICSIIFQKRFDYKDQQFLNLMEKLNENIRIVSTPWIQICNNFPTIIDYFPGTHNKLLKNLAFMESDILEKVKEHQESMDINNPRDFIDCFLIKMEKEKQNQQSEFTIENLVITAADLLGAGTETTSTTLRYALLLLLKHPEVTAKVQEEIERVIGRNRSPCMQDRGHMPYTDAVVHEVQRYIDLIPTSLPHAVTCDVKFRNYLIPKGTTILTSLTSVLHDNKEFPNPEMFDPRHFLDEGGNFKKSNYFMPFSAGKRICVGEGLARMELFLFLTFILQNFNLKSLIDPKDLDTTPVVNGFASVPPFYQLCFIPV
In the next series the target is Cytochrome P450 2C9 (Homo sapiens, UniProt P11712). The experiment in a line: Inhibition of CYP2C9. The series is classed as ADME.
Cytochrome P450 2C9, sequence (P11712 whole entry): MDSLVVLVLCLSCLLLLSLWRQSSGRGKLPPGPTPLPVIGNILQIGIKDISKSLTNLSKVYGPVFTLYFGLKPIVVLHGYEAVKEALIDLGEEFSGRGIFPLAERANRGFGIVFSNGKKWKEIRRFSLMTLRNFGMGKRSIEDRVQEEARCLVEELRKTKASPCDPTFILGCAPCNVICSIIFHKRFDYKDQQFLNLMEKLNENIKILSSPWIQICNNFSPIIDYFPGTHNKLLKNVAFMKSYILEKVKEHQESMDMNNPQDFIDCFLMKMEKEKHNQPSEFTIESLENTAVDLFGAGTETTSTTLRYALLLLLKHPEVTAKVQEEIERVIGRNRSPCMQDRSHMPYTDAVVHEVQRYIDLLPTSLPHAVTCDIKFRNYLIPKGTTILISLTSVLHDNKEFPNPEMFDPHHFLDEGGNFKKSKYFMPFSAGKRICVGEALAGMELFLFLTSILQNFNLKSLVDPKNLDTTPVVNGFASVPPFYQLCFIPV
A short description of series [6]: Half life in rat liver microsomes. The series is classed as ADME, Microsome. For orientation: Liver microsomes are a subcellular fraction often used to study metabolism.
Series [7] can be described thus: Volume of distribution in rat at 1 mg/kg, iv. Details: dose 1 mg/kg, route intravenous. The settings on record: in vivo. Type of series: ADME, organism-based.
Series [8] can be described thus: Oral bioavailability in rat at 5 mg/kg. The series is classed as ADME, organism-based. The conditions noted are these: in vivo.
Series [9] in a line: Half life in dog liver microsomes. Type of series: ADME, Canis lupus familiaris, Microsome.
The nature of series [10]: Cmax in rat at 5 mg/kg, po. The series is classed as ADME, organism-based. Details: dose 5 mg/kg, route oral. The conditions noted are these: in vivo.
The next series addresses T2, Cytochrome P450 1A2 (Homo sapiens, UniProt P05177).
T2 sequence (P05177 whole entry): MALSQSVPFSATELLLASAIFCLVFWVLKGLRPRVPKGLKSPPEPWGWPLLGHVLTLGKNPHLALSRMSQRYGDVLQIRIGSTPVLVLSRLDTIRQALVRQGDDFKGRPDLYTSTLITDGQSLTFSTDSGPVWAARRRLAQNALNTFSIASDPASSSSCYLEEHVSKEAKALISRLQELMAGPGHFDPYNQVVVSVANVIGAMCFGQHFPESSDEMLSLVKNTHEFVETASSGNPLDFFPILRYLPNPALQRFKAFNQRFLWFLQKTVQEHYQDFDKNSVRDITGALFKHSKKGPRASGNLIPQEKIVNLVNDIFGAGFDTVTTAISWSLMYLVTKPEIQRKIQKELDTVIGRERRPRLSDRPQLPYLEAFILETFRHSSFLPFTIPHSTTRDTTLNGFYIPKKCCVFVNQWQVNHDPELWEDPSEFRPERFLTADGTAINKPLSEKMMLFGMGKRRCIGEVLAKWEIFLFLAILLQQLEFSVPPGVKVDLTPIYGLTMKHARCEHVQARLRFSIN
Briefly: Inhibition of CYP1A2. Type of series: ADME.

Series [11] is described as follows: Half life in rat at 1 mg/kg, iv. Details: dose 1 mg/kg, route intravenous. Type of series: ADME, organism-based. The settings on record: in vivo.
Series [12] can be described thus: Half life in mouse liver microsomes. The series is classed as ADME, Microsome.
The next series has as its target Cytochrome P450 2D6 (Homo sapiens, UniProt P10635). Briefly: Inhibition of CYP2D6. Type of series: ADME.
The target in the next series is Cytochrome P450 3A4 (Homo sapiens, UniProt P08684). The experiment in a line: Inhibition of CYP3A4. The series is classed as ADME.
Cytochrome P450 3A4, sequence (P08684 whole entry): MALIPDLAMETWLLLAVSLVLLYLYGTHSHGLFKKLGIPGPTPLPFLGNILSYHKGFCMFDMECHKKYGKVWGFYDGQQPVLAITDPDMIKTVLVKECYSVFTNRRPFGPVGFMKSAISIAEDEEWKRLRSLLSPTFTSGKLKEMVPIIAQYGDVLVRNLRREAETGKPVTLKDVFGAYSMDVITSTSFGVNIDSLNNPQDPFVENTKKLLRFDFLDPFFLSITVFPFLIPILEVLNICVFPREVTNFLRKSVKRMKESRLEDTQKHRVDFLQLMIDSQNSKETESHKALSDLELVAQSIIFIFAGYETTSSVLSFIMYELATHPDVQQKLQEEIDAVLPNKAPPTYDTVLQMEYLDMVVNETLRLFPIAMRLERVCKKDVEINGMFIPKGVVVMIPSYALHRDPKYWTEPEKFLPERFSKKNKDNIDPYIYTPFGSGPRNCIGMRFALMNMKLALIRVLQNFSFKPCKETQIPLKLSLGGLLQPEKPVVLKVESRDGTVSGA
Series [13] is described as follows: Half life in human liver microsomes. Type of series: ADME, Microsome.
A short description of series [14]: Ratio of drug level in brain to plasma of rat at 10 mg/kg, ip after 1 hr. The series is classed as ADME, organism-based. Details: dose 10 mg/kg, route intraperitoneal. The conditions noted are these: read-out: BPR.
A short description of series [15]: Clearance in rat at 1 mg/kg, iv. The conditions noted are these: in vivo. Set-up: dose 1 mg/kg, route intravenous. Type of series: ADME, organism-based.
Series [16] in a line: Aqueous solubility of the compound at pH 7.4. The conditions noted are these: buffer. Type of series: physicochemical.
Series [17] concerns the target Histamine H1 receptor (Homo sapiens) (UniProt P35367). The experiment in a line: Inhibition of human H1 receptor at 10 uM.
For series [18], the target named is Histamine H2 receptor (Homo sapiens) (UniProt P25021). The experiment in a line: Inhibition of human H2 receptor at 10 uM.
Histamine H2 receptor (Homo sapiens), sequence (P25021 whole entry): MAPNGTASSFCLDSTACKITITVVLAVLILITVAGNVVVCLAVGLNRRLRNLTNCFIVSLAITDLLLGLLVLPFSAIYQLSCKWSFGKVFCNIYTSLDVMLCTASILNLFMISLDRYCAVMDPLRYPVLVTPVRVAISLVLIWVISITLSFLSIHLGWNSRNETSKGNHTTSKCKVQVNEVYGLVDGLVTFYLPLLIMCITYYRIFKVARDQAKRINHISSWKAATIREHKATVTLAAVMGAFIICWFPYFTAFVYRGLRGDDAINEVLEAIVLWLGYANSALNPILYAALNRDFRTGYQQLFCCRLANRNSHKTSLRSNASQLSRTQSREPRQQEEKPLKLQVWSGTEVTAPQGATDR
Series [19] addresses Histamine H4 receptor (Homo sapiens) (UniProt Q9H3N8). The experiment in a line: Inhibition of human H4 receptor at 10 uM.

The structures appear in SMILES notation.

Histamine H3 receptor (Rattus norvegicus, UniProt Q9QYN8), sequence (Q9QYN8 whole entry): as the sequence (Q9QYN8 whole entry) above
T1 sequence (Q9Y5N1 whole entry): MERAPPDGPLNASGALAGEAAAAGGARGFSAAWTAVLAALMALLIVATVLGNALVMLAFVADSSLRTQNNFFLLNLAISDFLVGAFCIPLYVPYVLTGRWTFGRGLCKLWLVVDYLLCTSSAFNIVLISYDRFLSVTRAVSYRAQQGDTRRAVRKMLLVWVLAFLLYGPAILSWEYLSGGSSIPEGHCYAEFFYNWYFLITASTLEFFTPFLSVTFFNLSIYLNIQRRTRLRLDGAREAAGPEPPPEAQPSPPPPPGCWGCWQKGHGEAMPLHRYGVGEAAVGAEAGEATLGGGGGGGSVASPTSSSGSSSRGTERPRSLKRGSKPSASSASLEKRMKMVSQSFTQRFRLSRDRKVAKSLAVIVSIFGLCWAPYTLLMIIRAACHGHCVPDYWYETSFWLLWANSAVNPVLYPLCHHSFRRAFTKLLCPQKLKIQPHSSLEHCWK
Cytochrome P450 2D6, sequence (P10635 whole entry): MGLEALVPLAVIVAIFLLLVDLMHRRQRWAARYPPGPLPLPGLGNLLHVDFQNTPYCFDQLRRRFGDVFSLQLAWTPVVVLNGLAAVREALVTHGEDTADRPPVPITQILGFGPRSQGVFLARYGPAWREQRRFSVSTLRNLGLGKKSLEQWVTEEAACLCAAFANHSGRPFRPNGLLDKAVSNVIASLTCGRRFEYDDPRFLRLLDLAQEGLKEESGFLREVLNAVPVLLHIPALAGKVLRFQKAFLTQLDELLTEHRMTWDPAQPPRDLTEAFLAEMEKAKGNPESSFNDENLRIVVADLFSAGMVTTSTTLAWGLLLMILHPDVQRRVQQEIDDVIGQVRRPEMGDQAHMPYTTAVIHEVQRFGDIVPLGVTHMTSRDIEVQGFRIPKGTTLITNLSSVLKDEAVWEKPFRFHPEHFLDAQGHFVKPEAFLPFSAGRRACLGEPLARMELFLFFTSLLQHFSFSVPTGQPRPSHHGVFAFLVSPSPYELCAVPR
Histamine H1 receptor (Homo sapiens), sequence (P35367 whole entry): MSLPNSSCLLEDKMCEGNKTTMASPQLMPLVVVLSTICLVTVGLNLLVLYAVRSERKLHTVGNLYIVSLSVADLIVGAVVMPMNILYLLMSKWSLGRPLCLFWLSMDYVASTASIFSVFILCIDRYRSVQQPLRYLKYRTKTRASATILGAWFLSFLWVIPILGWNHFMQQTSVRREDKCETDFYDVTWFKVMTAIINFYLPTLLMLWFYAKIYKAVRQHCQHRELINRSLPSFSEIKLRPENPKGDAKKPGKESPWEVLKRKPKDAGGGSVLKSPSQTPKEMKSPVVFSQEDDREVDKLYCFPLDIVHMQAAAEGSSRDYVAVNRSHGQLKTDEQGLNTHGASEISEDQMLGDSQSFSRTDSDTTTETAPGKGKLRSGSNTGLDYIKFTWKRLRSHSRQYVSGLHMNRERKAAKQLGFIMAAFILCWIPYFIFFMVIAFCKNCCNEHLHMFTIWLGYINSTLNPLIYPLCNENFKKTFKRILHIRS
Histamine H4 receptor (Homo sapiens), sequence (Q9H3N8 whole entry): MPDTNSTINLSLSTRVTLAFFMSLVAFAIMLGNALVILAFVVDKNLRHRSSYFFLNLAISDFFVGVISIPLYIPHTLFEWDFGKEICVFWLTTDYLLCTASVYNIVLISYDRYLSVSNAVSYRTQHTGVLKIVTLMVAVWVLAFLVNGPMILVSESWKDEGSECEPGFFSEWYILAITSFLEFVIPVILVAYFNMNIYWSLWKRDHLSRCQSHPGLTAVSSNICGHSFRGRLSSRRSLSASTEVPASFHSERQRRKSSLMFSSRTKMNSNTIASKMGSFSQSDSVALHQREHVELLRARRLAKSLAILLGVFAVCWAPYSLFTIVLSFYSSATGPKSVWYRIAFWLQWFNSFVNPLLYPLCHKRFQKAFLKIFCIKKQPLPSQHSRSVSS

A word on the inhibition: it is the change of the read-out against control, counted positive when it falls. Read a high inhibition as a strong effect. For orientation: Ki means the dissociation constant of the complex between target and ligand, obtained from inhibition or displacement. A low value points to a stronger hold on the target. In the case of `Oc1ccc2c(c1)CCC1(CCN(C3CCC3)CC1)O2`, the inhibition (against Histamine H3 receptor [1]; in series [4]) was 50% each time. Moreover, the inhibition constant (Ki) on Histamine H3 receptor [2] and at Histamine H3 receptor [3] was greater than 3000 nM throughout.
For orientation: AUC(0-inf) means the area under the concentration-time curve extrapolated to infinity. One may read the IC50 as the concentration needed to halve the response being measured. Read a high IC50 as weaker potency. What is called half-life is the time in which the quantity being followed falls by half. A lower half-life goes with fast loss. The Vd is a proportionality between amount in the body and measured concentration, not a real space. Higher therefore signals extensive tissue distribution. In general, bioavailability refers to dose-corrected exposure relative to a reference, in per cent. A low value points to poor availability. One may read the Cmax as the peak of the concentration-time curve. The clearance is a measure of how efficiently the substance is removed, as volume per time. Broadly, the solubility is the dissolved amount per volume that the medium holds. The compound `O=C(C1CC1)N1CCC(Oc2ccc3c(c2)CCC2(CCN(C4CCC4)CC2)O3)CC1` showed an AUC(0-inf) in [5] of 359 ng·h/mL. Moreover, the concentration for half-maximal inhibition (IC50) at Cytochrome P450 2C19, at Cytochrome P450 2C9, on Cytochrome P450 1A2, against Cytochrome P450 2D6 and against Cytochrome P450 3A4 was greater than 30000 nM in each case. Also, the half-life is greater than 40 min in [6]; greater than 40 min in [9]; 96 min in series [11]; greater than 40 min in series [12]; greater than 40 min in [13]. Further, in [7], the distribution volume (Vd) was 2.7 L/kg. The compound further yielded a bioavailability in series [8] of 8%. The values for the Ki at Histamine H3 receptor [2] and at Histamine H3 receptor [3] were 6 nM and 16 nM, respectively. In series [10], this compound returned a Cmax of 71 ng/mL. Further, the Kp at 1 h in [14] came to 2.3. Further, the clearance in [15] came out at 20 mL/min/kg. Moreover, the solubility in [16] is greater than 100 µg/mL.
As for `CCS(=O)(=O)N1CCC(Oc2ccc3c(c2)CCC2(CCN(C4CCC4)CC2)O3)CC1`, the values for the Ki at Histamine H3 receptor [2] and on Histamine H3 receptor [3] were 7 nM and 24 nM, respectively.
Regarding `CC(C)S(=O)(=O)N1CCC(Oc2ccc3c(c2)CCC2(CCN(C4CCC4)CC2)O3)CC1`, the inhibition constant (Ki) was 7 nM at Histamine H3 receptor [2] and 27 nM at Histamine H3 receptor [3].
For `CC(C)(C)OC(=O)N1CCC(Oc2ccc3c(c2)CCC2(CCN(C4CCC4)CC2)O3)CC1`, the Ki on Histamine H3 receptor [2] turned out to be 47 nM; at Histamine H3 receptor [3] it was 40 nM.
In turn, `CC(C)C(=O)N1CCC(Oc2ccc3c(c2)CCC2(CCN(C4CCC4)CC2)O3)CC1` had a total exposure AUC(0-inf) in series [5] of 410 ng·h/mL. In addition, the concentration for half-maximal inhibition (IC50) against Cytochrome P450 2C19, against Cytochrome P450 2C9, against Cytochrome P450 1A2, on Cytochrome P450 2D6 and at Cytochrome P450 3A4 was greater than 30000 nM in each case. For the same compound, the half-life in [6] was greater than 40 min; in series [9], greater than 40 min; in [11], 66 min; in [12] it was greater than 40 min; in [13], greater than 40 min. For the same compound, the Vd in series [7] is 1.9 L/kg. In [8], the bioavailability stood at 9%. Also, the Ki at Histamine H3 receptor [2] is 2 nM; at Histamine H3 receptor [3] it was 6 nM. In addition, the concentration in series [10] peaked (Cmax) at 80 ng/mL. Moreover, the Kp at 1 h in series [14] worked out at 2.3. The compound also gave a clearance in [15] of 18 mL/min/kg. In [16], this compound displayed a solubility greater than 100 µg/mL.
Consider `O=S(=O)(C1CC1)N1CCC(Oc2ccc3c(c2)CCC2(CCN(C4CCC4)CC2)O3)CC1`, for which, in series [5], the total exposure AUC(0-inf) is 435 ng·h/mL. The half-inhibitory concentration (IC50) against Cytochrome P450 2C19, against Cytochrome P450 2C9, against Cytochrome P450 1A2, on Cytochrome P450 2D6 and against Cytochrome P450 3A4 was greater than 30000 nM in each case. In addition, the half-life was greater than 40 min in [6]; greater than 40 min in [9]; 108 min in series [11]; greater than 40 min in [12]; greater than 40 min in series [13]. Moreover, the volume of distribution (Vd) in [7] was found to be 1.6 L/kg. Also, the bioavailability in [8] came out at 5%. For the same compound, the Ki was determined as 9 nM at Histamine H3 receptor [2] and 18 nM on Histamine H3 receptor [3]. Besides, the peak level in series [10] (Cmax) was 76 ng/mL. For the same compound, the Kp at 1 h in [14] turned out to be 2. This compound registered a clearance in [15] of 10 mL/min/kg. This compound returned a solubility in [16] greater than 100 µg/mL.
Regarding `CC(=O)N1CCC(Oc2ccc3c(c2)CCC2(CCN(C4CCC4)CC2)O3)CC1`, the half-maximal inhibitory concentration (IC50) against Cytochrome P450 2C19, against Cytochrome P450 2C9, against Cytochrome P450 1A2, against Cytochrome P450 2D6 and on Cytochrome P450 3A4 was greater than 30000 nM in each case. Besides, the half-life in series [6], in series [9], in [12] and in [13] was greater than 40 min throughout. The Ki on Histamine H3 receptor [2] came out at 4 nM; at Histamine H3 receptor [3], 10 nM.
Compound `CS(=O)(=O)N1CCC(Oc2ccc3c(c2)CCC2(CCN(C4CCC4)CC2)O3)CC1` yielded a total exposure AUC(0-inf) in series [5] of 392 ng·h/mL. Besides, the IC50 against Cytochrome P450 2C19 was greater than 30000 nM; on Cytochrome P450 2C9 it was greater than 30000 nM; against Cytochrome P450 1A2, greater than 30000 nM; against Cytochrome P450 2D6 it was 18000 nM; on Cytochrome P450 3A4, greater than 30000 nM. The half-life in series [6] is greater than 40 min; in series [9], greater than 40 min; in series [11], 36 min; in [12] it was greater than 40 min; in [13], greater than 40 min. In [7], this compound came in with a Vd of 0.5 L/kg. For the same compound, in series [8], the bioavailability amounted to 4%. In addition, the values for the Ki on Histamine H3 receptor [2] and on Histamine H3 receptor [3] were 7 nM and 17 nM, respectively. Further, in [10], the highest level (Cmax) was 83 ng/mL. Further, the inhibition in series [17], in series [18] and in series [19] was less than 20% throughout. Moreover, the Kp at 1 h in [14] is 1.5. In series [15], this compound showed a clearance of 9 mL/min/kg. The solubility in [16] is greater than 100 µg/mL.
Turning to `c1cc2c(cc1OC1CCNCC1)CCC1(CCN(C3CCC3)CC1)O2`, the inhibitory constant (Ki) at Histamine H3 receptor [2] turned out to be 3 nM; on Histamine H3 receptor [3], 6 nM.

The values are drawn from ChEMBL document CHEMBL2010741, “Synthesis and evaluation of a new series of 1'-cyclobutyl-6-(4-piperidyloxy)spiro[benzopyran-2,4'-piperidine] derivatives as high affinity and selective histamine-3 receptor (H3R) antagonists” (Bioorg Med Chem Lett, 2012).
